Experimental data from patent US7022836B2, “Methods for producing and transforming cassava protoplasts” (National Starch and Chemical Investment Holding Corporation, priority 1999, dated 2006).
Marks after values point to notes of the source that are not given here.

System: cassava leaf explants
Experiment: Primary somatic embryogenesis from leaf explants (mature embryos per cultured leaf explant)
Type: cell-based
Details: for leaf explants that formed ME / number of ME/CLE: maximum
Protocol: The procedure to obtain FEC is outlined in FIG. 1. 1t starts with the induction of primary embryos. Primary embryos are formed in a two step procedure. In the first step explants are cultured on medium supplemented with salts and vitamins (preferably Murashige and Skoog (1962)), a carbohydrate source (for example 20 g/l sucrose) and an auxin (e.g. 1–8 mg/l picloram, or dicamba or 2,4-D) for the initiation of embryos. After 10 to 15 days on this first medium bipolar torpedo shaped embryos are formed. […] After transfer of the explants with torpedo shaped embryos to a step 2 medium (the same medium as step 1 but without an auxin, with eventually the addition of cytokinins) the torpedo shaped embryos become mature.
In the presently used protocol there is genotypic variation in the number of mature embryos formed per cultured explant. The genotypes M.Col1505, M.Col22 and Gading gave the highest numbers of mature embryos per cultured leaf explant (ME/CLE). However, the number of mature embryos formed was low. In M.Col22 a maximum of 22% of the leaf explants isolated from in vitro grown plants and cultured on a step 1 medium with 4 mg/l 2,4-D, formed ME with a maximum number of 0.8 ME/CLE. On a step 1 medium with 8 mg/l 2,4-D a maximum of 49% of the leaf explants formed ME with a maximum number of 3.5 ME/CLE.
Mathews et al. (1993) improved the efficiency of primary embryogenesis in the genotype M.Co11505 by transferring explants after 15 days of step 1 medium to a growth regulator-free medium supplemented with 0.5% charcoal. On this medium maturation was improved and as a result the number of mature embryos increased from 0.4 in the control to 3,4 ME/CLE. The best results were obtained if donor plants were pretreated with auxins as 2,4-D or picloram or Dicamba. For this, plants were grown in liquid MS20 medium and supplied with the auxin (final concentration 8 mg/l) after 12 days of growth. Two days later leaf explants were isolated of the donor plants and cultured on step 1 medium with 8 mg/l 2,4-D, picloram or Dicamba.

[1] = M.Col22, step 1 medium with 4 mg/l 2,4-D
[2] = M.Col22, step 1 medium with 8 mg/l 2,4-D

O=C(O)COc1ccc(Cl)cc1Cl [2,4-D, 2,4-dichlorophenoxyacetic acid]
leaf explants that formed ME [1]: ≤ 22% | number of ME/CLE [1]: ≤ 0.8 ME/CLE | leaf explants that formed ME [2]: ≤ 49% | number of ME/CLE [2]: ≤ 3.5 ME/CLE | primary mature embryos per cultured leaf explant after 2,4-D pretreatment (genotype M.Col22, pretreatment yes): 9.4 # mature embryos per cultured leaf explant | primary mature embryos per cultured leaf explant after 2,4-D pretreatment (genotype TMS 4(2)1244, pretreatment yes): 0 # mature embryos per cultured leaf explant | primary mature embryos per cultured leaf explant after 2,4-D pretreatment (genotype TMS 30001, pretreatment yes): 0 # mature embryos per cultured leaf explant | primary mature embryos per cultured leaf explant after 2,4-D pretreatment (genotype TMS 30211, pretreatment yes): 0 # mature embryos per cultured leaf explant | primary mature embryos per cultured leaf explant after 2,4-D pretreatment (genotype TMS 30395, pretreatment yes): 0.1 # mature embryos per cultured leaf explant | primary mature embryos per cultured leaf explant after 2,4-D pretreatment (genotype TMS 30555, pretreatment yes): 0.7 # mature embryos per cultured leaf explant | primary mature embryos per cultured leaf explant after 2,4-D pretreatment (genotype TMS 30572, pretreatment yes): 0 # mature embryos per cultured leaf explant | primary mature embryos per cultured leaf explant after 2,4-D pretreatment (genotype TMS 50395, pretreatment yes): <0.1 # mature embryos per cultured leaf explant | primary mature embryos per cultured leaf explant after 2,4-D pretreatment (genotype TMS 60444, pretreatment yes): 1.1 # mature embryos per cultured leaf explant | primary mature embryos per cultured leaf explant after 2,4-D pretreatment (genotype TMS 60506, pretreatment yes): <0.1 # mature embryos per cultured leaf explant | primary mature embryos per cultured leaf explant after 2,4-D pretreatment (genotype TMS 90059, pretreatment yes): <0.1 # mature embryos per cultured leaf explant | primary mature embryos per cultured leaf explant after 2,4-D pretreatment (genotype TMS 90853, pretreatment yes): 0.2 # mature embryos per cultured leaf explant
